Data published in article PMC5382548 (Scientific Reports, 2015).

How the values were obtained:
[1] = system: p21^KRAS protein in HCT116 cells; assay: p21KRAS protein immunoblot, HCT116; format: cell-based, human; conditions: IC50 concentration, 72 h; cell line not given
Procedure: (a) KRAS mRNA steady-state expression was evaluated by Taqman Real-time RT-PCR using specific Taqman Assays for KRAS and β-Actin for normalization. KRAS mRNA steady-state expression levels were calculated by the ΔΔCt method, using DMSO (vehicle control) for calibration; and (b) KRAS protein steady-state expression evaluated by immunoblot relative to control (DMSO vehicle) Results are expressed as mean ± SEM of at least three independent experiments; *p < 0.05 and §p < 0.01 from DMSO (vehicle control).
In agreement with its reported capacity to accumulate in cytoplasm, bind to UTR1 and UTR2 RNA G4[14][20] and inhibit NRAS translation, TMPyP4 reduced the levels of p21^KRAS by ~75% in HCT116 cells. […]
Samples were homogenized in ice-cold 1:1 solution of buffer A [10 mm Tris•HCl pH 7.6, 5 mm MgCl2, 1.5 mm KOAc, 2 mm dithiothreitol (DTT), and Halt Protease and Phosphatase inhibitor cocktail, EDTA-free (#78445, Thermo Scientific)] and buffer 2X (10 mm Tris•HCl pH 7.6, 1% Nonidet-P40, and Halt Protease and Phosphatase inhibitor cocktail), by vigorous vortexing and incubated on ice for 30 min. […] Protein concentrations were determined using the BioRad protein assay kit according to the manufacturer’s instructions. Steady-state levels of KRAS protein were determined by immunoblot analysis. […] Steady-state protein levels were expressed as mean ±SEM from at least three independent experiments.

[2] = system: KRAS21R G4; assay: FRET melting competition assay, labelled KRAS21R; format: binding, human; conditions: ligand 1 μM, labelled KRAS21R 0.2 μM
Procedure: To assess selectivity of the IQc compounds 2d and 3e to different DNA sequences, we performed competitive FRET experiments with 0.2 μM of labelled KRAS21R and F21T G4 and increasing concentrations of two non-fluorescent competitors, 26mer ds-DNA or the human telomeric sequence (HT21). A decrease in ΔTm indicates the displacement of the ligand from labelled G4 by the competitor DNA.
Figure 3 FRET melting competition assay data for (a) 2d and (b) 3e (1 μM) in complex with KRAS21R and F21T G4s (0.2 μM), with increasing concentrations of non-labeled 26ds, HT21 or KRAS21R (0.4 to 25 μM) competitor, in K-cacodylate buffer (pH 7.4, 60 mM K^+).
Oligonucleotide sequences were purchased from Eurofins MWG Synthesis GmbH, Germany or STAB VIDA Genomics Lab, Caparica, Lisbon, Portugal. The labelled oligonucleotides used in the FRET assays had attached the donor fluorophore FAM (6-carboxyfluorescein) and the acceptor fluorophore TAMRA (6-carboxytetramethylrhodamine): KRAS21R: 5′-FAM-[…]-TAMRA-3′; KRAS32R: 5′-FAM-[…]-TAMRA-3′; UTR-1: 5′-FAM-GCGGCGGCGGAGG-TAMRA-3′; UTR-2: 5′-FAM-[…]-TAMRA-3; T-Loop:5′-FAM-[…]-TAMRA-3′; F21T: 5′-FAM-[…]-TAMRA-3′. Non-labelled oligonucleotides were used in FRET competition assays and in the spectroscopic studies: ds26: - d(5′-CAATCGGATCGAATT CGATCCGATTG-3′); KRAS21R: 5′-[…]-3′; HT21: 5′-[…]-3′. […]

Structure (SMILES): CCN(CC)CCCNc1ccc2c(c1)c1[nH]c3ccccc3c1c[n+]2C [2d]
- KRAS protein levels reduced to (% remaining) [1]: ~ 50%

Structure (SMILES): CCN(CC)CCCNc1ccc2c(c1)[nH]c1c2c[n+](C)c2ccc(NCCCN(CC)CC)cc12.[Cl-] [3e]
- Concentration of HT21 required to displace ligand from its complex with KRAS21R [2]: > 10 µM
- Fold higher concentration of HT21 required to displace ligand from its complex with KRAS21R [2]: more than 50 fold
